The values below come from the NIST ThermoML archive (doi:10.1021/je800925v).

A short description of data set [1]: xn = mol fraction of the nth substance listed. The conditions noted are these: Liquid, x1 = 1.
The conditions of data set [2]: Liquid.

Numbers after ± are expanded uncertainties.

Broadly, the mass density is mass per unit of volume. In the case of `CCO` [ethanol] + CCCCCCCC, the mass density in data set [1] (293.15 K) was found to be 790.2 ± 7.5 kg/m3; in data set [1] (298.15 K) it was 785.9 ± 7.6 kg/m3.
As usually defined, the viscosity is the internal friction of a fluid under shear. Consider `CCCCCC` [hexane], for which, in data set [2] (293.15 K), the mass density is recorded as 659.8 ± 2.8 kg/m3 and the viscosity was found to be 0.2979 ± 0.038 mPa·s. In addition, in data set [2] (298.15 K), the mass density came to 655.3 ± 2.8 kg/m3 and the viscosity stood at 0.2865 ± 0.038 mPa·s.
The corresponding values for `CCCCCCCC` [octane] are 705.6 ± 9.5 kg/m3, 0.5374 ± 0.023 mPa·s, 701.6 ± 9.6 kg/m3 and 0.5087 ± 0.022 mPa·s.
The corresponding values for `CCO` [ethanol] are 790.2 ± 2.2 kg/m3, 1.21 ± 0.062 mPa·s, 785.9 ± 2.2 kg/m3 and 1.099 ± 0.059 mPa·s.
In the same order, the values of `CCCCCCCCCC` [decane] are 731 ± 2.4 kg/m3, 0.9133 ± 0.028 mPa·s, 727.2 ± 2.4 kg/m3 and 0.8509 ± 0.027 mPa·s.
Turning to `CCO` [ethanol] + CCCCCC, in data set [1] (293.15 K), the mass density worked out at 790.2 ± 2.2 kg/m3 and the viscosity stood at 1.21 ± 0.062 mPa·s. Also, in data set [1] (298.15 K), the mass density was determined as 785.9 ± 2.2 kg/m3 and the viscosity is recorded as 1.099 ± 0.059 mPa·s.
